Source: US20140336135A1, “NOVEL USE OF RHODODENDRIN” (Catholic University Industry Academy Cooperation Foundation, priority 2013, published 2014)

Legend:
HaCaT cells [1] = assay: Cytotoxicity of rhododendrin, MTT cell viability; format: cell-based, human; settings: various concentrations, 24 hours
Experimental: HaCaT cells were purchased from CLS Cell Line Service GmbH (Eppelheim, Germany). HaCaT cells were seeded at a density of 2×10^4 cells/well in 96-well plates. After a 12 hours incubation, the cells were incubated with various concentrations of rhododendrin for 24 hours. Then, cells were incubated with 3-(4,5-dimethylthiaol-2-yl)-2,5-diphenyltetrazolium bromide (MTT) reagent for 2-4 hours at 37° C. To calculate cell viability, MTT signals were quantified with a microplate reader (BioTek, Winooski, Vt., USA) at wavelength of 540 nm.

TLR7 signaling = assay: Effect on TLR7 signaling pathway in keratinocytes (Western blot, immunofluorescence); format: cell-based, human
Experimental: Keratinocytes were treated with imiquimod, and then TLR7 signaling in the cells was examined by Western blot analysis and immune fluorescence staining. The detailed experimental methods are as follows.
Primary keratinocytes collected from the foreskin of a healthy subject were cultured. Human keratinocytes were cultured in keratinocyte serum-free medium (K-SFM) supplemented with epidermal growth factor (EGF) and bovine pituitary extract (Gibco BRL, Rockville, Md.). When the cells reached to 70% confluency, the cells were washed twice with PBS and cultured in K-SFM for 24 hours. To induce the differentiation of the keratinocytes, 1.2 mM calcium was added to the cells which were then cultured for 1, 3, 7 and 14 days, respectively.
Western blot analysis was performed in the following manner. Serum-starved keratinocytes were treated with various concentrations of rhododendrin for 1 hour, and then stimulated by treatment with imiquimod for different time periods. The cell pellets were lysed in ice-cold RIPA buffer (Roche Applied Science, Indianapolis, Ind., USA) containing protease inhibitor cocktail at 4° C. for 30 minutes. Protein samples were isolated by SDS-PAGE (sodium dodecylsulfate-polyacrylamide gel electrophoresis) and analyzed by immunoblotting. Briefly, the protein on the SDS polyacrylamide gel was transferred to a nitrocellulose membrane (Amersham, UK). […] A signal was detected using X-ray film development or Image-Analyzer System (LAS-3000, Fujifilm, Japan) in a dark room.
In addition, the expression patterns of TLR7, NF-kB (a marker of TLR7) and caveolin (a marker of psoriasis) were analyzed by immunofluorescence in the following manner.
Primary keratinocytes (5×10^5 cells/well) were pre-treated with rhododendrin for 1 hour, and then stimulated with imiquimod for 1 hour. The signal of immunostained NF-kB p65 was analyzed by the method described in Y. Kim. et. al., Free Radical Biology and Medicine; 51(11): 1985-1995, 2011. […]

[2] = tested on: Human keratinocyte HaCaT cells; assay: Inhibition of intracellular ROS induced by UV irradiation (H2DCF-DA); format: cell-based; settings: 20 μM rhododendrin 1 hour, then 100 J/m^2 UV light
Experimental: Human keratinocyte HaCaT cells (obtained from professor N. Fusenig, Cancer Research, Germany) were placed in a 60-mm culture dish at a density of 5×10^5 cells (1×10^6 cells for a 100 mm culture dish), and then cultured in 10% FBS (fetal bovine serum)-containing DMEM (Dulbecco's modified Eagle's medium) for 24 hours.
After culture, the cells were treated with 20 μM rhododendrin for 1 hour, and then washed three times with PBS (phosphate buffered saline). To induce ROS (reactive oxygen species), the cells were irradiated with 100 J/m^2 of UV light from a UV lamp (FSX 24 T12/UVB/HO, Pansol™ USA). Immediately after UV irradiation, the cells were washed with PBS and cultured for 4 hours in 1% FBS-containing DMEM medium supplemented with […]. Then, the cells were treated with 25 μM DCFH-DA (2,7-dichlorofliuorescin diacetate) in HBSS (Hank's balanced salt solution, BioWhittaker, CAMBREX, USA) buffer for 30 minutes, and then washed three times with PBS. Next, the measurement of ROS production in the cells by H2DCF-DA staining was performed in the same manner as described in Example 3-1.

[3] = tested on: mice having psoriasis induced by imiquimod; assay: Inhibition of hyperkeratinization in imiquimod psoriasis-induced mouse model (histology, qRT-PCR); format: in vivo, mice (C57BL/6)
Experimental: Tissues were excised from mice having psoriasis induced by imiquimod, and then the effect of rhododendrin on the inhibition of hyperkeratinization in the tissues was examined by histological analysis and qRT (quantitative real-time)-PCR analysis.
Specifically, in order to induce psoriasis by imiquimod, the hairs on the back of 8-week-old mice (C57BL/6, Central Animal Laboratory Inc.) were removed by using hair removal cream. The back of the mice was pre-treated daily with 20 mM rhododendrin before 1 hour, and then imiquimod (3.125 mg) was applied to the back at an one-day interval for 7 days. On the last day of application, the tissues were collected.
Histological examination of the mice skin was performed in the following manner. The mouse skin tissues were fixed in PBS containing 4% paraformaldehyde for 24 hours, washed with tap water, dehydrated with ethanol, and then embedded in paraffin to make a paraffin block. The paraffin block was cut with a microtome into 4 μm-thick sections, which were then placed on a glass slide and treated with xylene to remove wax (paraffin). Then, the tissue sections were dehydrated with ethanol and stained with hematoxylin-eosin (H&E). Histological analysis was performed using a fluorescence attached microscope (Olympus, Japan).
RNA isolation and qRT (quantitative real-time)-PCR analysis were performed in the following manner. Total RNAs were isolated from the tissues using an RNeasy Mini Kit (Qiagen, Valencia, Calif., USA) according to the manufacturer's instructions, and then synthesized into cDNA using QuantiTect Reverse Transcription Kit (Qiagen) according to the manufacturer's instructions. qRT-PCR was performed using Rotorgene™6000 (Corbett life Science) with KAPA™SYBR FAST q-PCR Master Mix(2×) universal. The relative amount of mRNAs was determined by […] method using GAPDH as an internal control. PCR was performed under the following conditions: 95° C. for 5 min; 35 cycles, each consisting of 96° C. for 20 sec, 60° C. for 20 sec and 72° C. for 20 sec; and one cycle at 72° C. for 5 min.

HaCaT cells [4] = assay: ROS scavenging activity, ROS induced by TNF-α/IFN-γ (H2DCF-DA); format: cell-based, human
Experimental: HaCaT cells were seeded at a density of 3×10^5 cells/well in 6-well plates for 12 hours. Cells were washed with serum-free media, treated with 20 μm rhododendrin for 1 hour, and then stimulated with 10 ng/ml of TNF-α and 100 U/ml of […] for 3 hours. The cells were stabilized in Hanks' balanced salt solution (HBSS) for 30 minutes, stained with 10 μM 2′,7′-dichlorofluorescin diacetate (H2DCF-DA) at 37° C. for 30 minutes, and ROS signal was then analyzed with confocal microscopy with emission at 513 nm and excitation at 488 nm. Also, the fluorescence of the cells was measured with a microplate reader (Synergy, BIO TEK, US).

## C[C@H](CCc1ccc(O)cc1)O[C@@H]1O[C@H](CO)[C@@H](O)[C@H](O)[C@H]1O [rhododendrin, Rhododendrin]
HaCaT cells [1]
  cytotoxicity (cell viability, MTT): no cytotoxicity
TLR7 signaling; keratinocytes, imiquimod and 20 μM rhododendrin, fluorescence staining, FIG. 14
  activity of caveolin (marker of psoriasis): protected
TLR7 signaling; primary keratinocytes pre-treated with rhododendrin 1 hour, then imiquimod, FIGS. 12 and 13
  activity of TLR7 (down signaling): inhibited
TLR7 signaling; primary keratinocytes pre-treated with rhododendrin 1 hour, then imiquimod, phospho-NF-kB p65 Western blot and p65 immunostaining, FIGS. 12 and 13
  activity of NF-kB (marker of TLR7): also inhibited
[2]; FIG. 4
  ROS fluorescence by confocal microscopy: only very minute fluorescence spots were found
[2]; versus group not treated, FIG. 5
  amount of DCF-fluorescence (microplate reader): significantly lower
[3]; 20 mM rhododendrin on the back daily 1 hour before imiquimod (3.125 mg), 7 days, FIGS. 6 to 8
  induction of psoriasis (visual observation of the back tissue): significantly decreased
[3]; 20 mM rhododendrin topical, imiquimod 7 days, H&E histology, FIGS. 7, 8
  thickness of the epidermal and dermal layers: a decrease in the thickness of the epidermal and dermal layers
[3]; 20 mM rhododendrin topical, imiquimod 7 days, versus control group, FIG. 9
  expression of TLR (mRNA, qRT-PCR) in skin tissue: significantly lower
HaCaT cells [4]; 20 μM rhododendrin, then TNF-α/IFN-γ, FIG. 3
  production of DCF-fluorescence (microplate reader): decreased to that in the control group not treated with TNF-α/IFN-γ
HaCaT cells [4]; 20 μm rhododendrin 1 hour, then 10 ng/ml TNF-α and 100 U/ml IFN-γ 3 hours, FIG. 2
  ROS signal (H2DCF-DA fluorescence) by confocal microscopy: no fluorescence was detected
